Measured values: patent US20230173070A1, “METHODS AND SYSTEMS FOR ENHANCING DELIVERY OF THERAPEUTIC AGENTS TO BIOFILMS USING LOW BOILING POINT PHASE CHANGE CONTRAST AGENTS” (The University of North Carolina at Chapel Hill, priority 2020, published 2023)
Structures can show the parent of a compound that is named as a salt.

How the values were obtained:
[1] = tested on: MRSA biofilms (USA300 LAC); assay: MRSA biofilm assay, antibiotics alone, survivors enumerated by plating; assay type: cell-based, S. aureus; details: antibiotic alone at clinically achievable concentration (Cmax), 24 hours of drug treatment of mature biofilm, FIG. 2A
Method: Antibiotics were chosen based on clinical relevance or previously reported anti-biofilm efficacy in vitro. Mature MRSA biofilms (USA300 LAC) were cultured for 24 hours in tissue culture treated plates before the addition of antibiotics. Following 24 hours of drug treatment, biofilms were washed, and survivors were enumerated by plating.
(§1) MRSA strain LAC biofilms were cultured overnight in brain-heart infusion (BHI) media in 12-well (FIGS. 2A and 2B) or 24-well (FIG. 2C) tissue culture treated plates. Biofilms were washed and treated with antibiotics. Where indicated, plates were transferred to a custom-built temperature-controlled 37° C. water bath alignment setup. PCCA were added and 30 s ultrasound exposure was applied at indicated pressures and 20% duty cycle (FIG. 2B) or 10% duty cycle (FIG. 2C). After 24 hours, biofilms were washed, sonicated for disruption and surviving cells were enumerated by serial dilution plating. Survivors were presented as log10 CFU/ml. The averages of n=3 biologically independent samples are shown. The error bars represent the standard deviation. Statistical significance was determined using a one-way analysis of variance (ANOVA) with Dunnett's (FIG. 2A) or Sidak's multiple comparison test (FIGS. 2B and 2C). **, ***, **** denotes P<0.005, P<0.0005, P<0.0001, respectively. LEV, levofloxacin; GENT, gentamicin; TOB, tobramycin; MUP, mupirocin; VAN, vancomycin; LIN, linezolid, RIF, 10 μg/ml rifampicin; ns, not significant; US-PCCA, ultrasound-stimulated phase change contrast agents.
Biofilm assays were performed using the USA300 MRSA strain LAC. It is a highly characterized community-acquired MRSA (CA-MRSA) strain isolated in 2002 from an abscess of an inmate in Los Angeles County jail in California^67. LAC was cultured overnight (18 h) in brain heart infusion (BHI) media (Oxoid) in biological triplicates. Each culture was diluted 1:150 in fresh media and 2 or 3 ml was added to the wells of 24-well or 12-well tissue culture treated plates (Costar), respectively. Biofilms were covered with Breathe-Easier sealing strips (Sigma) and incubated at 37° C. for 24 h. Biofilms were carefully washed twice with PBS and fresh BHI media containing antibiotics was added. Biofilms were covered and incubated at 37° C. for 24 h. Biofilms were carefully washed twice with PBS before dispersal in a sonicating water bath (5 min) and vigorous pipetting. Surviving cells were enumerated by serial dilution and plating. […] For daptomycin activity, the media was supplemented with 50 mg/L of Ca^2+ ions. Where indicated tobramycin was supplemented with 30 μg/ml rhamnolipids^22 (50/50 mix of mono- and di-rhamnolipids, Sigma). Where indicated biofilms were treated with PCCA and ultrasound. For crystal violet staining, biofilms were carefully washed twice with PBS, and dried in a 65° C. oven for 1 h. Biofilms were stained with 1 ml 0.4% crystal violet for 5 min, and washed 3× with PBS. Wells were photographed, and stain was solubilized with 2 ml 5% acetic acid and absorbance measured at 570 nm.

MRSA strain LAC biofilms = assay: MRSA biofilm assay with antibiotics plus PCCA and ultrasound (US-PCCA), survivors enumerated by plating; assay type: cell-based, S. aureus; details: for increase in killing of biofilm-associated cells by US-PCCA: vs antibiotic alone, 10% duty cycle, FIG. 2C; for increase in killing of biofilm-associated cells by US-PCCA / enhancement of tobramycin efficacy in the presence of PCCAs: 30 s ultrasound; for enhancement of tobramycin efficacy in the presence of PCCAs: 20% duty cycle, FIG. 2B
Method: Next, we tested the ability of 30 second (s) US-PCCA treatment to potentiate tobramycin efficacy. […] We hypothesized that US-PCCA might improve tobramycin penetration into biofilms and increase its efficacy. Mature biofilms were washed and transferred to a custom-built temperature-controlled 37° C. water bath alignment setup (FIG. 1B). Tobramycin and PCCAs were added and ultrasound applied at a range of rarefactional pressures (300-1200 kPa).
as §1
MRSA strain LAC biofilms were cultured overnight in brain-heart infusion (BHI) media in 24-well tissue culture treated plates. Biofilms were washed and treated with antibiotics and transferred to a custom-built temperature-controlled 37° C. water bath alignment setup. PCCAs were added and 30 s ultrasound exposure was applied at 300 kPa or 600 kPa (FIG. 3B and 3C) and 10% duty cycle. After 24 h, biofilms were washed, sonicated for disruption and surviving cells were enumerated by serial dilution plating (FIG. 3A) or stained with crystal violet (FIG. 3B). The averages of n=6 biologically independent samples are shown. The error bars represent the standard deviation. Statistical significance was determined using a one-way analysis of variance (ANOVA) with Dunnett's multiple comparison test (a) or multiple unpaired t-test (2-tailed) (FIG. 3C). *, **, **** denotes P<0.05, P<0.005, P<0.0001, respectively. TOB, 58 μg/ml tobramycin; RL, 30 μg/ml rhamnolipids; DAP, 100 μg/ml daptomycin; LIN, 15 μg/ml linezolid; RIF, 10 μg/ml rifampicin; ADEP, 5 μg/ml acyldepsipeptide; ns, not significant; US-PCCA, ultrasound-stimulated phase change contrast agents.
Biofilm assays were performed using the USA300 MRSA strain LAC. It is a highly characterized community-acquired MRSA (CA-MRSA) strain isolated in 2002 from an abscess of an inmate in Los Angeles County jail in California^67. LAC was cultured overnight (18 h) in brain heart infusion (BHI) media (Oxoid) in biological triplicates.

C[C@H]1COc2c(N3CCN(C)CC3)c(F)cc3c(=O)c(C(=O)O)cn1c23 [levofloxacin]
reduction in surviving biofilm cells [1]: no efficacy

CN[C@H](CC(C)C)C(=O)N[C@H]1C(=O)N[C@@H](CC(N)=O)C(=O)N[C@H]2C(=O)N[C@H]3C(=O)N[C@H](C(=O)N[C@H](C(=O)O)c4cc(O)cc(O)c4-c4cc3ccc4O)[C@H](O)c3ccc(c(Cl)c3)Oc3cc2cc(c3O[C@@H]2O[C@H](CO)[C@@H](O)[C@H](O)[C@H]2O[C@H]2C[C@](C)(N)[C@H](O)[C@H](C)O2)Oc2ccc(cc2Cl)[C@H]1O [vancomycin, vancomycin hydrochloride]
reduction in surviving biofilm cells [1]: significant reduction
increase in killing of biofilm-associated cells by US-PCCA (MRSA strain LAC biofilms): 93%

C/C(=C\C(=O)OCCCCCCCCC(=O)O)C[C@@H]1OC[C@H](C[C@@H]2O[C@H]2[C@@H](C)[C@H](C)O)[C@@H](O)[C@H]1O [mupirocin]
reduction in surviving biofilm cells [1]: significant reduction
increase in killing of biofilm-associated cells by US-PCCA (MRSA strain LAC biofilms): 41%

CC(=O)NC[C@H]1CN(c2ccc(N3CCOCC3)c(F)c2)C(=O)O1 [linezolid]
reduction in surviving biofilm cells [1]: significant reduction

gentamicin
reduction in surviving biofilm cells [1]: no efficacy

CCCCCC/C=C\CCCCCCCC(=O)O [Palmitoleic acid, palmitoleic acid]
vancomycin killing of biofilms (MRSA strain LAC biofilms; 50 μg/ml vancomycin, 30 μg/ml palmitoleic acid, with US-PCCA (30 s, 1 MHz, 600 kPa, 10% duty cycle), FIG. 12): drastically improves vancomycin killing

NC[C@H]1O[C@H](O[C@H]2[C@H](O)[C@@H](O[C@H]3O[C@H](CO)[C@@H](O)[C@H](N)[C@H]3O)[C@H](N)C[C@@H]2N)[C@H](N)C[C@@H]1O [Tobramycin, tobramycin]
reduction in surviving biofilm cells [1]: significant reduction
enhancement of tobramycin efficacy in the presence of PCCAs (MRSA strain LAC biofilms; 300 kPa): significantly enhanced
enhancement of tobramycin efficacy in the presence of PCCAs (MRSA strain LAC biofilms; 600 kPa): significantly enhanced
enhancement of tobramycin efficacy in the presence of PCCAs (MRSA strain LAC biofilms; 1200 kPa): significantly enhanced
